Assay results: patent publication US20220226299A1 (NIPPON CHEMIPHAR CO., LTD., priority 2019, published 2022)

Target: T1, human Cav3.2 channels (Homo sapiens, UniProt O95180)
T1 construct: human Cav3.2 channel ORF (Open Reading Frame) gene; expressed in transfected cells; host or cells: HEK293 cells (ATCC No. CRL-1573), pcDNA3.1(+) plasmid
Experiment: T-type calcium blocking action: intracellular calcium (Fluo-4 AM fluorescence) in HEK293 cells steadily expressing human Cav3.2 channels
Assay type: cell-based
Details: HEK293 cells expressing human Cav3.2; KCl-stimulated calcium influx, Fluo-4 fluorescence; Tables 1 to 3
In short: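 Fluo-4 AM-loaded stable HEK293 cells were preincubated 15 min at RT with compound (0.1% DMSO final) in choline-based buffer (pH 7.3). Gramicidin was added, then KCl-induced calcium influx was read at 485/510 nm for 10 s. Percent block came from peak rise over baseline, and IC50 from log-concentration plots.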

T1 sequence (O95180 whole entry): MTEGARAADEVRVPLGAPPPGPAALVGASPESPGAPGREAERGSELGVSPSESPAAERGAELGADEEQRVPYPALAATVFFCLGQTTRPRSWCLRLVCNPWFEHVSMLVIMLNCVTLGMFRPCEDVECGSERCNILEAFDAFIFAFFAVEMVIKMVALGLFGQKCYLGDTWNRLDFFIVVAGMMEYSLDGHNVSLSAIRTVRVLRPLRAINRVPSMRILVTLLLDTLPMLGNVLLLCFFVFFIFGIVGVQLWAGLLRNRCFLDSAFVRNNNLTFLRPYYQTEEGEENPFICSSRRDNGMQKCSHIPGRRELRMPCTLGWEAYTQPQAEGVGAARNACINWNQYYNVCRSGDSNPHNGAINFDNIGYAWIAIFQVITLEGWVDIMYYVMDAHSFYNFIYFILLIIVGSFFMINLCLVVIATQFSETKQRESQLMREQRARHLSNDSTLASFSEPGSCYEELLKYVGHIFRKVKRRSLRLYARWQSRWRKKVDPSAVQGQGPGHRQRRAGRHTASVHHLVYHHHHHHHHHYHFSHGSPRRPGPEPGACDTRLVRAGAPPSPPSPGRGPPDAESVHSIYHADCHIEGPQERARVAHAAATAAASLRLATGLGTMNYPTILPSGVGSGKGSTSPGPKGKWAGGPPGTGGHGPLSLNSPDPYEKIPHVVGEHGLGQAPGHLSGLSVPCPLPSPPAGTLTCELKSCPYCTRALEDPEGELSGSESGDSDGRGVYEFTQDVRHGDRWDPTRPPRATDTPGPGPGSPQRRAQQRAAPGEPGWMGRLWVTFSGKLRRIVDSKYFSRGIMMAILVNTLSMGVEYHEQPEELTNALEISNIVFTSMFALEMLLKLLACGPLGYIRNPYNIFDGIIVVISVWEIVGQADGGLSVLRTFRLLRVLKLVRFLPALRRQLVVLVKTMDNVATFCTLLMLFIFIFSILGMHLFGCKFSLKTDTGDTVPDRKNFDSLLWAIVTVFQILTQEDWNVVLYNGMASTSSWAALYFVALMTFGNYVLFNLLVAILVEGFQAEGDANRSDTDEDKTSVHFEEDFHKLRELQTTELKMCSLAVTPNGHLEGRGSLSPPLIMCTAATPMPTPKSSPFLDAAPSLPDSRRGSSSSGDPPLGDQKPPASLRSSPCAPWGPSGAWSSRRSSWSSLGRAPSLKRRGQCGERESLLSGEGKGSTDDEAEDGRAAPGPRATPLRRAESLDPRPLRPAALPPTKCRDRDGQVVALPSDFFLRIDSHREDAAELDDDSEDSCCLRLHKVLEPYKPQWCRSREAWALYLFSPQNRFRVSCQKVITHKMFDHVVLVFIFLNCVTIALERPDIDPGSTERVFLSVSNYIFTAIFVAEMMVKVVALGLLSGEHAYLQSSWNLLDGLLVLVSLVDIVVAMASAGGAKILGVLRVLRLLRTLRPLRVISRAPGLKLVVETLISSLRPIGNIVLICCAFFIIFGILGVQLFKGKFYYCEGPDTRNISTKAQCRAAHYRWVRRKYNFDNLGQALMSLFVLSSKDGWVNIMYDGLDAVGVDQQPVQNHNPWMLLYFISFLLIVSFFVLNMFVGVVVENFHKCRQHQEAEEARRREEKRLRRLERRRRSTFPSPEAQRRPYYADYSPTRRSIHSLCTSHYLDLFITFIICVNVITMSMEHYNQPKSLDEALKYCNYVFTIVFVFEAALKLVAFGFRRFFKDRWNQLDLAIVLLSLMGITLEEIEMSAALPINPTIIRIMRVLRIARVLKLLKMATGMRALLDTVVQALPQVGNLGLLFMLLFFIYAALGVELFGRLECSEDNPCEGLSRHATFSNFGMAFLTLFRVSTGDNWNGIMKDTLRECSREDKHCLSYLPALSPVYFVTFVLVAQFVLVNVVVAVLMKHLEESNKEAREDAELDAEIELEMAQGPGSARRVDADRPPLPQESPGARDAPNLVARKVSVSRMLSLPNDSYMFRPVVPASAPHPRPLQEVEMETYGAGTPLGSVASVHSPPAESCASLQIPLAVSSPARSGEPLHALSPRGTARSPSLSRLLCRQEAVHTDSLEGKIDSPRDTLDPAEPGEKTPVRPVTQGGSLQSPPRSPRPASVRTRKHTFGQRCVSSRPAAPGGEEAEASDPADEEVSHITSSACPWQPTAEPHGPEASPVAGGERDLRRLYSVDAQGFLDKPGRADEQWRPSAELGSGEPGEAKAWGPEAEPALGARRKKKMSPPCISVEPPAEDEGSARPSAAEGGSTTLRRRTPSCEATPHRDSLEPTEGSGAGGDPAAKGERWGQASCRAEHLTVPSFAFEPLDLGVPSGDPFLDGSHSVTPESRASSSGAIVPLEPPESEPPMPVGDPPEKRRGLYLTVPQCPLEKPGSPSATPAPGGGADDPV

| SMILES | IC50 [µM] |
| --- | --- |
| C[C@@H]1CN(c2ccc(CC(=O)N[C@@H]3CCN(c4cncc(C(F)(F)F)c4)C3)cc2)C[C@H](C)O1 [Example 86, 2-(4-((2R,6S)-2,6-dimethylmorpholino)phenyl)-N—((R)-1-(5-(trifluoromethyl)pyridin-3-yl)pyrrolidin-3-yl) acetamide] | 0.37 |
| O=C(Cc1ccc(C(F)(F)F)cc1)NC1CN(c2cncc(C(F)(F)F)c2)C1 [Example 89, 2-(4-(Trifluoromethyl)phenyl)-N-(1-(5-(trifluoromethyl)pyridin-3-yl)azetidin-3-yl)acetamide] | 0.43 |
| CN1CCN(c2ccc(CC(=O)N[C@@H]3CCN(c4cncc(C(F)(F)F)c4)C3)cc2)CC1 [Example 93, (R)-2-(4-(4-methylpiperazin-1-yl)phenyl)-N-(1-(5-(trifluoromethyl)pyridin-3-yl)pyrrolidin-3-yl)acetamide] | 0.34 |
| O=C(Cc1ccc(N2CCNCC2)cc1)N[C@@H]1CCN(c2cncc(C(F)(F)F)c2)C1 [Example 94, (R)-2-(4-(piperazin-1-yl)phenyl)-N-(1-(5-(trifluoromethyl)pyridin-3-yl)pyrrolidin-3-yl)acetamide] | 0.91 |
| O=C(Cc1ccc(N2CCCCC2=O)cc1)N[C@@H]1CCN(c2cncc(C(F)(F)F)c2)C1 [Example 96, (R)-2-(4-(2-oxopiperidin-1-yl)phenyl)-N-(1-(5-(trifluoromethyl)pyridin-3-yl)pyrrolidin-3-yl)acetamide] | 0.41 |
| O=C(Cc1nc2ccc(Cl)cc2o1)N[C@@H]1CCN(c2cncc(C(F)(F)F)c2)C1 [Example 97, (R)-2-(6-chlorobenzo[d]oxazol-2-yl)-N-(1-(5-(trifluoromethyl)pyridin-3-yl)pyrrolidin-3-yl)acetamide] | 0.25 |
| O=C(Cc1nc2ccccc2o1)N[C@@H]1CCN(c2cncc(C(F)(F)F)c2)C1 [Example 98, (R)-2-(benzo[d]oxazol-2-yl)-N-(1-(5-(trifluoromethyl)pyridin-3-yl)pyrrolidin-3-yl)acetamide] | 1.1 |
| CC(=O)OCC1(NC(=O)Cc2ccc(C3CC3)cc2)CCN(c2cncc(C(F)(F)F)c2)C1 (centres unmarked) [Example 104, (3-(2-(4-cyclopropylphenyl)acetamido)-1-(5-(trifluoromethyl)pyridin-3-yl)pyrrolidin-3-yl)methyl acetate] | 0.46 |
| COCC1(NC(=O)Cc2ccc(C3CC3)cc2)CCN(c2cncc(C(F)(F)F)c2)C1 (centres unmarked) [Example 105, 2-(4-cyclopropylphenyl)-N-(3-(methoxymethyl)-1-(5-(trifluoromethyl)pyridin-3-yl)pyrrolidin-3-yl)acetamide] | 0.24 |
| CC(C)c1ccc(CC(=O)NC2CCN(c3cncc(C(F)(F)F)c3)CC2)cc1 [Example 109, 2-(4-Isopropylphenyl)-N-(1-(5-(trifluoromethyl)pyridin-3-yl)piperidin-4-yl)acetamide] | 0.24 |
| COc1ncc(N2CC[C@@H](NC(=O)Cc3ccc(C(C)C)cc3)C2)cc1C(F)(F)F [Example 110, (R)-2-(4-isopropylphenyl)-N-(1-(6-methoxy-5-(trifluoromethyl)pyridin-3-yl)pyrrolidin-3-yl)acetamide] | 0.29 |
| CC(C)c1ccc(CC(=O)N[C@@H]2CCN(c3ncc(C(F)(F)F)cn3)C2)cc1 [Example 111, (R)-2-(4-isopropylphenyl)-N-(1-(5-(trifluoromethyl)pyrimidin-2-yl)pyrrolidin-3-yl)acetamide] | 9.9 |
| CC(C)c1ccc(CC(=O)N[C@H]2CCN(c3cncc(C(F)(F)F)c3)C2)cc1 [Example 114, (S)-2-(4-isopropylphenyl)-N-(1-(5-(trifluoromethyl)pyridin-3-yl)pyrrolidin-3-yl)acetamide] | 1.2 |
| CC(C)c1ccc(CC(=O)NC2CN(c3ccc(C(F)(F)F)nc3)C2)cc1 [Example 118, 2-(4-Isopropylphenyl)-N-(1-(6-(trifluoromethyl)pyridin-3-yl)azetidin-3-yl)acetamide] | 2.1 |
| O=C(Cc1cc(Cl)cc(Cl)c1)N[C@@H]1CCN(c2cncc(C(F)(F)F)c2)C1 [Example 119, (R)-2-(3,5-dichlorophenyl)-N-(1-(5-(trifluoromethyl)pyridin-3-yl)pyrrolidin-3-yl)acetamide] | 2.3 |
| O=C(Cc1cc(F)cc(Cl)c1)N[C@@H]1CCN(c2cncc(C(F)(F)F)c2)C1 [Example 120, (R)-2-(3-chloro-5-fluorophenyl)-N-(1-(5-(trifluoromethyl)pyridin-3-yl)pyrrolidin-3-yl)acetamide] | 0.82 |
| CC(C)c1ccc(CC(=O)N[C@@H]2CCN(c3ccc(C(F)(F)F)s3)C2)cc1 [Example 122, (R)-2-(4-isopropylphenyl)-N-(1-(5-(trifluoromethyl)thiophen-2-yl)pyrrolidin-3-yl)acetamide] | 1.5 |

The next compounds have a lower IC50 than those just listed; values first:

| IC50 [µM] | SMILES |
| --- | --- |
| 0.23 | CC(=O)N1CCN(c2ccc(CC(=O)N[C@@H]3CCN(c4cncc(C(F)(F)F)c4)C3)cc2)CC1 [Example 95, (R)-2-(4-(4-acetylpiperazin-1-yl)phenyl)-N-(1-(5-(trifluoromethyl)pyridin-3-yl)pyrrolidin-3-yl)acetamide] |
| 0.18 | O=C(Cc1ccc(N2CCC(F)(F)C2)cc1)N[C@@H]1CCN(c2ccc(C(F)(F)F)nc2)C1 [Example 84, (R)-2-(4-(3,3-difluoropyrrolidin-1-yl)phenyl)-N-(1-(6-(trifluoromethyl)pyridin-3-yl)pyrrolidin-3-yl)acetamide] |
| 0.15 | O=C1CCN(c2ccc(CC(=O)N[C@@H]3CCN(c4cncc(C(F)(F)F)c4)C3)cc2)CC1 [Example 102, (R)-2-(4-(4-oxopiperidin-1-yl)phenyl)-N-(1-(5-(trifluoromethyl)pyridin-3-yl)pyrrolidin-3-yl)acetamide] |
| 0.14 | O=C(Cc1ccc(C2CC2)cc1)NC1(CO)CCN(c2cncc(C(F)(F)F)c2)C1 (centres unmarked) [Example 103, 2-(4-cyclopropylphenyl)-N-(3-(hydroxymethyl)-1-(5-(trifluoromethyl)pyridin-3-yl)pyrrolidin-3-yl)acetamide] |
| 0.13 | O=C(Cc1ccc2cc[nH]c2c1)NC1CN(c2cncc(C(F)(F)F)c2)C1 [Example 90, 2-(1H-indol-6-yl)-N-(1-(5-(trifluoromethyl)pyridin-3-yl)azetidin-3-yl)acetamide] |
| 0.12 | O=C(Cc1ccc(C2CC2)cc1)N[C@@H]1CCN(c2ccc(C(F)(F)F)nc2)C1 [Example 121, (R)-2-(4-cyclopropylphenyl)-N-(1-(6-(trifluoromethyl)pyridin-3-yl)pyrrolidin-3-yl)acetamide] |
| 0.11 | O=C(Cc1ccc2cc[nH]c2c1)N[C@@H]1CCN(c2ccc(C(F)(F)F)nc2)C1 [Example 85, (R)-2-(1H-indol-6-yl)-N-(1-(6-(trifluoromethyl)pyridin-3-yl)pyrrolidin-3-yl)acetamide] |
| 0.11 | CC(C)c1ccc(CC(=O)N[C@@H]2CCN(c3nc(C(F)(F)F)cs3)C2)cc1 [Example 112, (R)-2-(4-isopropylphenyl)-N-(1-(4-(trifluoromethyl)thiazol-2-yl)pyrrolidin-3-yl)acetamide] |
| 0.1 | O=C(Cc1ccc(N2CCC3(CC2)OCCO3)cc1)N[C@@H]1CCN(c2cncc(C(F)(F)F)c2)C1 [Example 101, (R)-2-(4-(1,4-dioxa-8-azaspiro[4.5]decan-8-yl)phenyl)-N-(1-(5-(trifluoromethyl)pyridin-3-yl)pyrrolidin-3-yl)acetamide] |
| 0.1 | CC(C)c1ccc(CC(=O)N[C@@H]2CCN(c3ccc(C(F)(F)F)nc3)C2)cc1 [Example 113, (R)-2-(4-isopropylphenyl)-N-(1-(6-(trifluoromethyl)pyridin-3-yl)pyrrolidin-3-yl)acetamide] |
| 0.091 | O=C(Cc1ccc(OC(F)(F)F)cc1)N[C@@H]1CCN(c2cncc(C(F)(F)F)c2)C1 [Example 115, (R)-2-(4-(trifluoromethoxy)phenyl)-N-(1-(5-(trifluoromethyl)pyridin-3-yl)pyrrolidin-3-yl)acetamide] |
| 0.072 | Cn1ccc2ccc(CC(=O)N[C@@H]3CCN(c4ccc(C(F)(F)F)nc4)C3)cc21 [Example 92, (R)-2-(1-methyl-1H-indol-6-yl)-N-(1-(6-(trifluoromethyl)pyridin-3-yl)pyrrolidin-3-yl)acetamide] |
| 0.071 | CC(C)c1ccc(CC(=O)NC2CN(c3cncc(C(F)(F)F)c3)C2)cc1 [Example 117, 2-(4-Isopropylphenyl)-N-(1-(5-(trifluoromethyl)pyridin-3-yl)azetidin-3-yl)acetamide] |
| 0.044 | O=C(Cc1ccc(C(F)(F)F)cc1)N[C@@H]1CCN(c2cncc(C(F)(F)F)c2)C1 [Example 123, (R)-2-(4-(trifluoromethyl)phenyl)-N-(1-(5-(trifluoromethyl)pyridin-3-yl)pyrrolidin-3-yl)acetamide] |
| 0.04 | O=C(Cc1ccc(OCC(F)(F)F)cc1)N[C@@H]1CCN(c2cncc(C(F)(F)F)c2)C1 [Example 116, (R)-2-(4-(2,2,2-trifluoroethoxy)phenyl)-N-(1-(5-(trifluoromethyl)pyridin-3-yl)pyrrolidin-3-yl)acetamide] |
| 0.032 | Cn1ccc2ccc(CC(=O)N[C@@H]3CCN(c4cncc(C(F)(F)F)c4)C3)cc21 [Example 91, (R)-2-(1-methyl-1H-indol-6-yl)-N-(1-(5-(trifluoromethyl)pyridin-3-yl)pyrrolidin-3-yl)acetamide] |
| 0.019 | COCCN(C)c1ccc(CC(=O)N[C@@H]2CCN(c3cncc(C(F)(F)F)c3)C2)cc1 [Example 88, (R)-2-(4-((2-methoxyethyl)(methyl)amino)phenyl)-N-(1-(5-(trifluoromethyl)pyridin-3-yl)pyrrolidin-3-yl)acetamide] |
| 0.0054 | O=C(Cc1ccc(N2CCCC2)cc1)N[C@@H]1CCN(c2cncc(C(F)(F)F)c2)C1 [Example 87, (R)-2-(4-(pyrrolidin-1-yl)phenyl)-N-(1-(5-(trifluoromethyl)pyridin-3-yl)pyrrolidin-3-yl)acetamide] |
